Reference: patent US20240270821A1, “GIP/GLP1/GCG TRI-RECEPTOR AGONISTS AND USES THEREOF” (priority 2023, published 2024)
Like-named read-outs stand apart in the source and are kept apart here. Starred links: 1 amine or outer side, 2 acyl side, 3 side chain; linkers in the order of their positions; H or OH if unused. Non-standard residues stand in square brackets, D forms with d. Groups on a side chain read outwards from the residue. No end group written: not given here. *: point of attachment. C20 diacid = O=C(O)CCCCCCCCCCCCCCCCCCC(=O)*; C18 diacid = O=C(O)CCCCCCCCCCCCCCCCC(=O)*; αMePhe(2-F) = C[C@](N)(Cc1ccccc1F)C(=O)O; γGlu = O=C(O)[C@H](CCC(=O)[*:2])N[*:1]; NMeY = CN[C@@H](Cc1ccc(O)cc1)C(=O)O; αMe4Pal = C[C@](N)(Cc1ccncc1)C(=O)O; αMeY = C[C@](N)(Cc1ccc(O)cc1)C(=O)O; αMeF = C[C@](N)(Cc1ccccc1)C(=O)O; 4Pal = N[C@@H](Cc1ccncc1)C(=O)O; αMeL = CC(C)C[C@](C)(N)C(=O)O; αMeS = C[C@](N)(CO)C(=O)O; Orn = NCCC[C@H](N)C(=O)O; AEEA = NCCOCCOCC(=O)O; Aib = CC(C)(N)C(=O)O

Tests used:
Format in all cases: cell-based
[1] = target: T1, hGLP-1R (Homo sapiens, UniProt P43220); experiment: Functional cAMP activation in the presence of 0.1% casein (no HSA); conditions: read-out: Relative cAMP EC50, hGLP-1R;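 further: intracellular cAMP rise after 30 min at 37 °C read by HTRF, normalized between buffer only (0%) and maximal control ligand (100%), four-parameter variable-slope fit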
T1 sequence (P43220 24-463): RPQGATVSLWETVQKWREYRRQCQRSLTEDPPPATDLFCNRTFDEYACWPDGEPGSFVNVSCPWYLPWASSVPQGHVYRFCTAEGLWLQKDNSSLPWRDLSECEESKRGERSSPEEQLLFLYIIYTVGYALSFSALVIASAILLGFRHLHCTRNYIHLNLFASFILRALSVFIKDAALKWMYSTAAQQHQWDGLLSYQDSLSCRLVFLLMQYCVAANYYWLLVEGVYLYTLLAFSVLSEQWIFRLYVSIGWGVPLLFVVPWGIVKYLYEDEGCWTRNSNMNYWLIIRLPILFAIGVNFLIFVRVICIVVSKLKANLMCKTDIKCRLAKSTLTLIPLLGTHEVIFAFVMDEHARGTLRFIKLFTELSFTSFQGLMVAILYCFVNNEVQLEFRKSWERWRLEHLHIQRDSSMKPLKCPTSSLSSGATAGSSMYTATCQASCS

[2] = target: T1, hGLP-1R; experiment: Functional cAMP activity in the presence of 1% HSA; conditions: read-out: cAMP Rel EC50, hGLP-1R
[3] = target: T2, hGIPR (Homo sapiens, UniProt P48546); experiment: Functional cAMP activation in the presence of 0.1% casein (no HSA); conditions: read-out: Relative cAMP EC50, hGIPR;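 further: intracellular cAMP rise after 30 min at 37 °C read by HTRF against a standard curve, scaled between buffer alone (0%) and top control ligand concentration (100%), four-parameter fit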
T2 sequence (P48546 22-466): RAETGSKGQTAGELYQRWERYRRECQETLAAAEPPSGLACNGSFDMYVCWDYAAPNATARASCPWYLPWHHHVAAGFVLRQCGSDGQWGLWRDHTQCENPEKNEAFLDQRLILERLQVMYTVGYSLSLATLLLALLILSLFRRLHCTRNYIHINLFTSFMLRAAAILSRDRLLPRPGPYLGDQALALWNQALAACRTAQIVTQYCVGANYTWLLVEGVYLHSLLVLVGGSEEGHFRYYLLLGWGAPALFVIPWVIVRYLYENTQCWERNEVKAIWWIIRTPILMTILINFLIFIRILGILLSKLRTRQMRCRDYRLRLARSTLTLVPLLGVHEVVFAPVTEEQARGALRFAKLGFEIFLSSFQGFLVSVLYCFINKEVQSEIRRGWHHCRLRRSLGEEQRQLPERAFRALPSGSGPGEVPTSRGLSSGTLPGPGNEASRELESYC

[4] = target: T2, hGIPR; experiment: Functional cAMP activity in the presence of 1% HSA; conditions: read-out: cAMP Rel EC50, hGIPR
[5] = target: human GcgR (Homo sapiens, UniProt P47871); experiment: Functional cAMP activity in the presence of 1% HSA; conditions: read-out: cAMP Rel EC50, hGcgR
human GcgR, sequence (P47871 26-477): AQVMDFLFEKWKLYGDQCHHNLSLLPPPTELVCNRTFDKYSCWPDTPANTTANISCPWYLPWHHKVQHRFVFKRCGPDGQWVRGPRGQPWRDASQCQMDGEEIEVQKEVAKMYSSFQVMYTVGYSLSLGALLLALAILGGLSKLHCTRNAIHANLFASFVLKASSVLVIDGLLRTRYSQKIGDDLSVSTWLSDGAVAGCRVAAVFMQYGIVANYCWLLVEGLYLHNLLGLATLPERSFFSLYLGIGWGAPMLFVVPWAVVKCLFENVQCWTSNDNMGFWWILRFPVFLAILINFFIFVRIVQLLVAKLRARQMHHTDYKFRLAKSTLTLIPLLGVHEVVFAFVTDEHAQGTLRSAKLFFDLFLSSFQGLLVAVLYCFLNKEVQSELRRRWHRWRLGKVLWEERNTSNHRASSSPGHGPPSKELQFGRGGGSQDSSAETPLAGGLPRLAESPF

[6] = target: hGcgR (Homo sapiens, UniProt P47871); experiment: Functional cAMP activation in the presence of 0.1% casein (no HSA); conditions: read-out: Relative cAMP EC50, hGcgR;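 further: intracellular cAMP rise after 30 min at 37 °C, read by HTRF against a cAMP standard curve, scaled from buffer only (0%) to maximal control ligand response (100%)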
hGcgR, sequence (P47871 26-477): as above

[7] = in the presence of 0.1% casein (no HSA), geometric mean

EC50 [1] | EC50 [3] | EC50 [6] | Substance | EC50 [1, 7] | EC50 [2] | EC50 [3, 7] | EC50 [4] | EC50 [5] | EC50 [6, 7]
– | – | – | H-Y[Aib]QGTFTSDYSI[αMeL]LDKQAAK([AEEA-AEEA-γGlu-C20 diacid])QFVEWLIA[Aib]GPSSGEPPPGTG-NH2 [Example 336] | 0.921 nM | 227 nM | 0.306 nM | 64.4 nM | 1740 nM | 7.05 nM
0.401 nM | 0.0373 nM | 4.54 nM | H-Y[Aib]QGT[αMePhe(2-F)]TSD[4Pal][αMeS]I[αMeL]LD[Orn]K([AEEA-γGlu-C18 diacid])AQ[Aib][Orn]FI[dE]YLIEGGPSSGEPPPSGTE-NH2 [Example 501] | – | 38 nM | – | 2.32 nM | 455 nM | –
– | – | – | H-Y[Aib]QGTFTSDFS[Orn][αMeL]LDKK([AEEA-γGlu-C18 diacid])AQ[Aib]AFIEYLIE[Aib]SPSSGAPPPSGS-NH2 [Example 804] | 0.915 nM | 161 nM | 0.0751 nM | 17.6 nM | 2310 nM | 11.5 nM
1.3 nM | 0.137 nM | 7.18 nM | H-Y[Aib]QGT[αMePhe(2-F)]TSD[4Pal][αMeS]I[αMeL]LD[Orn]K([γGlu-Glu-C18 diacid])AQ[Aib][Orn]FI[dE][αMeY]LSEGGPSSGEPPPSGTEE-NH2 [Example 566] | – | 252 nM | – | 30.1 nM | 1780 nM | –
0.19 nM | 0.00911 nM | 2.18 nM | H-Y[Aib]QGT[αMePhe(2-F)]TSD[4Pal]SI[αMeL]LD[Orn]K([AEEA-γGlu-C18 diacid])AQ[αMe4Pal][Orn]FI[dE][αMeY]LIEGGPSSGEPPPSGS-NH2 [Example 706] | – | 23.7 nM | – | 0.913 nM | 240 nM | –
– | – | – | H-Y[Aib]QGTFTSD[4Pal]S[Orn][αMeL]LDKK([γGlu-γGlu-C18 diacid])AQ[αMe4Pal]AFIE[αMe4Pal]LIEGGPSSGAPPPSGS-NH2 [Example 952] | 4.85 nM | 439 nM | 0.166 nM | 16.6 nM | 266 nM | 2.4 nM
– | – | – | H-[NMeY][Aib]QGT[αMeF]TSDYSILLDKIAAK([AEEA-AEEA-γGlu-C20 diacid])AFIEYLIEGGPSSGEPPPSEG-NH2 [Example 299] | 0.963 nM | 380 nM | 0.137 nM | 40.2 nM | 1700 nM | 2.54 nM
– | – | – | Y[Aib]QGTFTSD[4Pal]SQ[αMeL]LD[Orn]K([dE-γGlu-C18 diacid])AQ[αMe4Pal]QFIE[αMeY]LIAGGPSSGAPPPSGSEEE-NH2 [Example 1081] | 1.29 nM | 151 nM | 0.105 nM | 8.44 nM | 2130 nM | 19.7 nM
– | – | – | H-Y[Aib]QGTFTSDFS[Orn][αMeL]LDKK([AEEA-γGlu-C18 diacid])AQ[αMe4Pal]AFIE[αMeY]LIEGGPSSGAPPPSGS-NH2 [Example 845] | 0.161 nM | 89.1 nM | 0.178 nM | 23.3 nM | 203 nM | 0.626 nM
– | – | – | Y[Aib]QGTFTSD[4Pal]S[Orn][αMeL]LDKK([γGlu-γGlu-C18 diacid])AQ[Aib]AFIE[αMeY]LLEGGPSSGAPPPSGSEE-NH2 [Example 944] | 4.86 nM | 985 nM | 0.216 nM | 37.2 nM | 1840 nM | 6.16 nM

Substance | EC50 [1] | EC50 [3] | EC50 [6] | EC50 [1, 7] | EC50 [2] | EC50 [3, 7] | EC50 [4] | EC50 [5] | EC50 [6, 7]
Y[Aib]QGT[αMePhe(2-F)]TSD[4Pal][αMeS]I[αMeL]LE[Orn]K([AEEA-γGlu-C18 diacid])AQ[αMe4Pal]EFI[dE][αMeY]LVEGGPSSGAPPPSGS-NH2 [Example 768] | 0.259 nM | 0.0294 nM | 10.3 nM | – | 33.2 nM | – | 2.65 nM | 2270 nM | –
H-Y[Aib]QGT[αMePhe(2-F)]TSD[4Pal][αMeS]I[αMeL]LD[Orn]K([AEEA-γGlu-C18 diacid])AA[Aib]EFI[dE][αMeY]LIEGGPSSGAPPPSGQ-OH [Example 722] | 0.252 nM | 0.01 nM | 1.71 nM | – | 27.2 nM | – | 0.953 nM | 170 nM | –
